Test results reported in PubChem BioAssay (NCI).
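In this assay, cells in 96-well plates receive the compound at five concentrations for 48 hours. Endpoints are linearly interpolated between the surrounding concentrations. GI50 marks 50% less growth. The concentration for full growth arrest is given as TGI.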

Columns and labels:
Assay in all cases: NCI anticancer screen, dose series, 48 h
NCI-H23 lung = test system: NCI-H23 lung
T-47D breast = test system: T-47D breast
LOX IMVI melanoma = test system: LOX IMVI melanoma
SNB-19 CNS = test system: SNB-19 CNS
OVCAR-5 ovarian = test system: OVCAR-5 ovarian
RPMI-8226 leukemia = test system: RPMI-8226 leukemia
A498 renal = test system: A498 renal
NCI/ADR-RES ovarian = test system: NCI/ADR-RES ovarian
SR leukemia = test system: SR leukemia
EKVX NSCLC = test system: EKVX NSCLC
OVCAR-8 ovarian = test system: OVCAR-8 ovarian
HCT-15 colon = test system: HCT-15 colon
SF-268 CNS = test system: SF-268 CNS
MCF7 breast = test system: MCF7 breast
CAKI-1 renal = test system: CAKI-1 renal
HCC-2998 colon = test system: HCC-2998 colon
TK-10 renal = test system: TK-10 renal
DU-145 prostate = test system: DU-145 prostate
SK-OV-3 ovarian = test system: SK-OV-3 ovarian
SF-539 CNS = test system: SF-539 CNS
U251 CNS = test system: U251 CNS
HT29 colon = test system: HT29 colon
K-562 leukemia = test system: K-562 leukemia
BT-549 breast = test system: BT-549 breast
ACHN renal = test system: ACHN renal
NCI-H460 lung = test system: NCI-H460 lung
SW-620 colon = test system: SW-620 colon
NCI-H522 lung = test system: NCI-H522 lung
SK-MEL-2 melanoma = test system: SK-MEL-2 melanoma

Q: For `O=c1oc2ccc(F)cc2c(=O)n1-c1ccc(I)cc1F`, which GI50 (NCI-H23 lung) is on record?
A: 311 nM

Q: What about the TGI (NCI-H23 lung) of the same compound?
A: 1590 nM

Q: And the GI50 (T-47D breast)?
A: 290 nM

Q: And the TGI (T-47D breast)?
A: 9240 nM

Q: And the GI50 (LOX IMVI melanoma)?
A: 374 nM

Q: What about the TGI (LOX IMVI melanoma) of the same compound?
A: 2290 nM

Q: What about the GI50 (SNB-19 CNS) of the same compound?
A: 409 nM

Q: What about the TGI (SNB-19 CNS) of the same compound?
A: > 54300 nM

Q: What about the GI50 (OVCAR-5 ovarian) of the same compound?
A: 3400 nM

Q: And the TGI (OVCAR-5 ovarian)?
A: > 54500 nM

Q: What about the GI50 (RPMI-8226 leukemia) of the same compound?
A: 239 nM

Q: What about the TGI (RPMI-8226 leukemia) of the same compound?
A: 745 nM

Q: And the GI50 (A498 renal)?
A: 191 nM

Q: What about the TGI (A498 renal) of the same compound?
A: 646 nM

Q: And the GI50 (NCI/ADR-RES ovarian)?
A: 522 nM

Q: And the TGI (NCI/ADR-RES ovarian)?
A: 5890 nM

Q: And the GI50 (SR leukemia)?
A: 388 nM

Q: What about the TGI (SR leukemia) of the same compound?
A: 11100 nM

Q: And the GI50 (EKVX NSCLC)?
A: 831 nM

Q: And the TGI (EKVX NSCLC)?
A: 7270 nM

Q: And the GI50 (OVCAR-8 ovarian)?
A: 872 nM

Q: And the TGI (OVCAR-8 ovarian)?
A: > 41900 nM

Q: What about the GI50 (HCT-15 colon) of the same compound?
A: 471 nM

Q: What about the TGI (HCT-15 colon) of the same compound?
A: 10900 nM

Q: What about the GI50 (SF-268 CNS) of the same compound?
A: 435 nM

Q: What about the TGI (SF-268 CNS) of the same compound?
A: 8250 nM

Q: What about the GI50 (MCF7 breast) of the same compound?
A: 762 nM

Q: And the TGI (MCF7 breast)?
A: 9030 nM

Q: And the GI50 (CAKI-1 renal)?
A: 337 nM

Q: What about the TGI (CAKI-1 renal) of the same compound?
A: 2190 nM

Q: What about the GI50 (HCC-2998 colon) of the same compound?
A: 3100 nM

Q: And the TGI (HCC-2998 colon)?
A: 9850 nM

Q: And the GI50 (TK-10 renal)?
A: 1060 nM

Q: And the TGI (TK-10 renal)?
A: 17500 nM

Q: And the GI50 (DU-145 prostate)?
A: 497 nM

Q: And the TGI (DU-145 prostate)?
A: 26400 nM

Q: And the GI50 (SK-OV-3 ovarian)?
A: 522 nM

Q: What about the TGI (SK-OV-3 ovarian) of the same compound?
A: 10500 nM

Q: And the GI50 (SF-539 CNS)?
A: 420 nM

Q: And the TGI (SF-539 CNS)?
A: 5170 nM

Q: What about the GI50 (U251 CNS) of the same compound?
A: 469 nM

Q: What about the TGI (U251 CNS) of the same compound?
A: > 100000 nM

Q: And the GI50 (HT29 colon)?
A: 3290 nM

Q: And the TGI (HT29 colon)?
A: > 33000 nM

Q: And the GI50 (K-562 leukemia)?
A: 397 nM

Q: And the TGI (K-562 leukemia)?
A: > 100000 nM

Q: What about the GI50 (BT-549 breast) of the same compound?
A: 486 nM

Q: And the TGI (BT-549 breast)?
A: 4090 nM

Q: And the GI50 (ACHN renal)?
A: 430 nM

Q: What about the TGI (ACHN renal) of the same compound?
A: 7390 nM

Q: And the GI50 (NCI-H460 lung)?
A: 404 nM

Q: What about the TGI (NCI-H460 lung) of the same compound?
A: 9850 nM

Q: What about the GI50 (SW-620 colon) of the same compound?
A: 584 nM

Q: What about the TGI (SW-620 colon) of the same compound?
A: 13300 nM

Q: And the GI50 (NCI-H522 lung)?
A: 322 nM

Q: And the GI50 (SK-MEL-2 melanoma)?
A: 344 nM

Q: What about the TGI (SK-MEL-2 melanoma) of the same compound?
A: 1900 nM
